From patent US20140275257A1, “N-ACETYL CYSTEINE COMPOSITIONS IN THE TREATMENT OF SYSTEMIC LUPUS ERYTHEMATOSUS” (Foundation for the State University of New York, priority 2013, published 2014)

Tested on: SLE patients
Experiment: ADHD Self-Report Scale (ASRS) in SLE patients treated with NAC
Type: in vivo, human
Method: The clinical trial design, eligibility criteria, randomization, blinding, monitoring of safety, tolerance and efficacy on NAC in patients with SLE was as described in Example 1, approved by the Food and Drug Administration (IND No: 101,320; clinicaltrials.gov identifier: NCT00775476). As an addendum to the Example 1 study, ASRS was evaluated as an exploratory outcome in 24 SLE patients randomized to receive orally either placebo or NAC in one of two treatment arms: 1,200 mg or 2,400 mg twice daily for three months. 12 patients were enrolled per dosing group, 9 received NAC while 3 received placebo. Due to missing data, 6 patients enrolled in the placebo arm and 8 patients enrolled into each of the two NAC treatment arms could be evaluated.
The ASRS is an 18-item scale that is used to assess the current status of the 18 DSM-IV symptoms of ADHD in adults. (Kessler, R. C. et al., “The World Health Organization Adult ADHD Self-Report Scale (ASRS): a short screening scale for use in the general population,” Psychol. Med., 35(2): 245-256 (2005)). Symptoms are rated on a frequency basis: 0=never, 1=rarely, 2=sometimes, 3=often, and 4=very often. Nine items assess inattention and nine assess hyperactivity-impulsivity. The 9 inattentive symptoms are summed to create the ASRS A subscale; the 9 hyperactive-impulsive symptoms are summed to compute the ASRS B subscale. These two scales are summed to compute the total score. For all scales, higher scores indicate more symptoms. The scale has high concurrent validity with a rater-administered ADHD symptom scale. (Adler, L. A. et al., “Validity of Pilot Adult ADHD Self-Report Scale (ASRS) to Rate Adult ADHD Symptoms,” Ann Clin. Psychiatry 18(3): 145-148 (2006)). As described in Example 1, SLE disease activity was assessed by using the British Isles Lupus Assessment Group (BILAG) (Isenberg, D. A. et al., “BILAG 2004. Development and initial validation of an updated version of the British Isles Lupus Assessment Group's disease activity index for patients with systemic lupus erythematosus,” Rheumatology, 44(7): 902-906 (2005)) and Systemic Lupus Erythematosus Disease Activity Index (SLEDAI) (Hochberg, M. C., “Updating the American College of Rheumatology revised criteria for the classification of systemic lupus erythematosus,” Arth. Rheum., 40(9): 1725 (1997)). Fatigue was estimated using the Fatigue Assessment Scale (FAS) (Michielsen, H. J. et al., “Psychometric qualities of a brief self-rated fatigue measure: The Fatigue Assessment Scale,” J. Psychosom. Res., 54(4): 345-352 (2003)).
Overall clinical effectiveness of NAC relative to placebo was analyzed with multilevel modeling as implemented in the STATA routine XTMIXED (from StataCorp, College Station, Tex.), with the three nested levels being drug group, subject within drug group and study visit within subject. All models included fixed effects for drug group, study visit and the drug group by study visit interaction along with random intercepts at each design level. […] Two-tailed paired t-test was used to assess the effects of placebo and of each and all NAC doses on clinical indices recorded on visits 2-5 relative to visit 1; p<0.05 was considered significant. Patients and controls were compared with two-tailed unpaired t-test. Correlations and t-test were performed with Prism (GraphPad, San Diego, Calif.).

[1] = NAC Dose 3, end of 3-month treatment

CC(=O)N[C@@H](CS)C(=O)O [NAC, N-acetyl-L-cysteine]
cognitive/inattentive ASRS A scores (NAC Dose 2 (2.4 g/day), z=−3.31, p=0.001): reduced | hyperactivity/impulsive components of ASRS scores (ASRS B scores) (NAC Dose 2 and 3, alone or combined (data not shown)): not affected | ASRS Total scores (NAC Dose 3 (4.8 g/day), after 2 and 3 months of treatment): diminished | cognitive/inattentive ASRS A scores (NAC Dose 3 (4.8 g/day), z=−4.04, p<0.0001): reduced | standardized mean difference effect size (Cohen's D), ASRS A scores [1]: 0.71 | standardized mean difference effect size (Cohen's D), ASRS B scores [1]: 0.44 | standardized mean difference effect size (Cohen's D), ASRS Total scores [1]: 0.72 | ASRS Total scores (NAC Doses 2 and 3 combined, after 3 months): reduced | reduction in ASRS Total scores relative to placebo (multilevel modeling) (NAC Doses 2 and 3 combined, XTMIXED z=−2.09, p=0.037): greater | cognitive/inattentive ASRS A scores (NAC Doses 2 and 3 combined, z=−3.41, p=0.001): reduced
